Where a name gives a salt, the structure may show the parent alone. Read-outs that look alike come from different tables or passages of the source. Residues, ends and D or L forms follow the SMILES beside them.
Assays:
[1] = system: bovine gamma globulin (BGG); experiment: Normalized viscosity of 280 mg/mL BGG in 20 mM histidine with local anesthetic excipients (Example 21); type: physicochemical; conditions: no B
Description: The first excipient compound, Excipient A, was selected from a group of compounds having local anesthetic properties.

[2] = Caffeine solubility testing with co-solutes at ambient temperature (Examples 32-33); conditions: for Observation of caffeine dissolution: caffeine 80 mg/mL; for Dissolution of caffeine enabled relative to reported solubility limit: co-solute in water, ambient temperature (about 23 C)
Experimental: Prepared solutions were used either neat or diluted with deionized water.
A small magnetic stir bar was added to the vial, and the solution was allowed to mix vigorously on a stir plate for about 10 minutes.

[3] = system: bovine gamma globulin (BGG)
[4] = excipient 10 mg/mL
[5] = system: bovine gamma globulin (BGG); conditions: arginine 25 mg/ml
Experimental: Each buffer solution contained different excipient or combination of excipients as described in the table below. The viscosity of the solutions was measured as described in previous examples.

[6] = system: bovine gamma globulin (BGG); experiment: Viscosity of 280 mg/mL BGG in histidine buffer pH 6 versus amount of arginine or caffeine added (Example 24); type: physicochemical
[7] = Viscosity of PEG (Mw ~1,000,000) solution in Tris buffer with excipient (Examples 12-13); type: physicochemical
[8] = biological target: T1, PEGylated BSA (1 PEG chain per BSA molecule) (Bos taurus, UniProt P02769); experiment: Viscosity of PEGylated BSA with 1 PEG chain per BSA with excipient, microVisc (Example 17); type: physicochemical; conditions: excipient 20 mg/mL
T1 construct: purchased Aldrich A7906
Experimental: To a beaker was added 200 mL of a phosphate buffered saline (Aldrich Cat. #P4417) and 4 g of BSA (Aldrich Cat. #A7906) and mixed with a magnetic bar. Next 400 mg of methoxy polyethylene glycol maleimide, MW=5,000, (Aldrich Cat. #63187) was added. The reaction mixture was allowed to react overnight at room temperature. The following day, 20 drops of HCl 0.1 M were added to stop the reaction. […] The reaction mixture was placed in an Amicon centrifuge tube with a molecular weight cutoff (MWCO) of 30,000 and concentrated to a few milliliters. Next the sample was diluted 20 times with a histidine buffer, 50 mM at a pH of approximately 6, followed by concentrating until a high viscosity fluid was obtained.
The viscometer measurements were completed at ambient temperature.

[9] = system: bovine gamma globulin (BGG); experiment: Normalized viscosity of 280 mg/mL BGG in 50 mM histidine HCl with primary/secondary excipient combinations (Example 10); type: physicochemical; conditions: no primary, secondary excipient 5 mg/mL
Experimental: The primary excipient compounds were selected from compounds having both anionic and aromatic functionality, as listed below in Table 5. The secondary excipient compounds were selected from compounds having either nonionic or cationic charge at pH 6 and either imidazoline or benzene rings, as listed below in Table 5. Formulations of these excipients were prepared in 50 mM histidine hydrochloride buffer solution for viscosity measurement in the following way. […] The individual primary or secondary excipient compounds were then dissolved in 50 mM histidine HCl.

[10] = system: bovine gamma globulin (BGG); experiment: Normalized viscosity of 280 mg/mL BGG in 20 mM histidine with excipients A/B (Example 20); type: physicochemical; conditions: no B
Description: Excipient compounds for this Example are listed below in Table 11.

[11] = system: bovine gamma globulin (BGG); experiment: Viscosity of 280 mg/mL BGG formulations in 50 mM histidine HCl pH 6 with excipient, cone and plate viscometer (Examples 1, 2, 4-6); type: physicochemical

T1 sequence (P02769 25-607): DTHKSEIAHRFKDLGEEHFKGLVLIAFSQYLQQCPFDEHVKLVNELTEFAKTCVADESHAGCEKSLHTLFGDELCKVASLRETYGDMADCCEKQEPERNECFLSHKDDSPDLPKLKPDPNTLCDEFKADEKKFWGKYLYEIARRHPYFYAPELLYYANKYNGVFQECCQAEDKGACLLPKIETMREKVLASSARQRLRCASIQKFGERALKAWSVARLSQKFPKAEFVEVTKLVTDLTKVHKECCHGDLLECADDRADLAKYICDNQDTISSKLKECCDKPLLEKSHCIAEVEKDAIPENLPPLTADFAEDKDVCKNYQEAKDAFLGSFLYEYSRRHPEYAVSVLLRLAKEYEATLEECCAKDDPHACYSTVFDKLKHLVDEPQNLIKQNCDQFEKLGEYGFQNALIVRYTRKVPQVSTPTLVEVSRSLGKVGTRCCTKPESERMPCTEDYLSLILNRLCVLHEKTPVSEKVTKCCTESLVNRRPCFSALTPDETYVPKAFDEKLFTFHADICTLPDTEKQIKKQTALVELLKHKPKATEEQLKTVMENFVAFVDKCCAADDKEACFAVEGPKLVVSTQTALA

For `CCN(CC)CCOC(=O)c1ccc(N)cc1` [Procaine HCl], which “Normalized Viscosity” value ([1]; excipient A 40 mg/mL) is on record?
The value was 0.64.

What about the “Observation of caffeine dissolution” value ([2]; co-solute 30 mg/mL) of the same compound?
Its value is “DND”.

And the “Observation of caffeine dissolution” value ([2]; co-solute 40 mg/mL)?
Its value is “DND”.

And the “Dissolution of caffeine enabled relative to reported solubility limit” value [2]?
The value was “at least about four times”.

And the “Viscosity Reduction” value ([3]; excipient 50 mg/mL)?
The value was 47%.

Which Viscosity [4] does the source give for `O=S(=O)([O-])[O-].[Na+].[Na+]` [Sodium sulfate] here?
Its Viscosity is 75.1 cP.

And the “Viscosity Reduction” value [4]?
The value was 5.8%.

With `Cn1cncc1C[C@H](NC(=O)CCN)C(=O)O.O=[N+]([O-])O` [L-Anserine nitrate] as the compound, how does the “Viscosity Reduction” value ([3]; excipient 50 mg/mL) read?
Its value is 21%.

What does the source list for `N=C(N)NCCC[C@H](N)C(=O)O` [Arginine]?
Viscosity [5]: 76.7 cP; Viscosity Reduction [5]: 41%; Viscosity ([6]; arginine added 53 mg/mL): 40.9 cP; Viscosity Reduction ([6]; arginine added 53 mg/mL): 48%; Viscosity ([6]; arginine added 79 mg/mL): 46.1 cP; Viscosity Reduction ([6]; arginine added 79 mg/mL): 42%; Viscosity ([6]; arginine added 105 mg/mL): 47.8 cP; Viscosity Reduction ([6]; arginine added 105 mg/mL): 40%; Viscosity ([6]; arginine added 132 mg/mL): 49.0 cP; Viscosity Reduction ([6]; arginine added 132 mg/mL): 38%; Viscosity ([6]; arginine added 158 mg/mL): 48.0 cP; Viscosity Reduction ([6]; arginine added 158 mg/mL): 39%; Viscosity ([6]; arginine added 174 mg/mL): 50.3 cP; Viscosity Reduction ([6]; arginine added 174 mg/mL): 36%; Viscosity ([6]; arginine added 211 mg/mL): 51.4 cP; Viscosity Reduction ([6]; arginine added 211 mg/mL): 35%

With `N=C(N)NCCCCN.O=S(=O)(O)O` [Agmatine sulfate] as the compound, how does the “Viscosity Reduction” value ([3]; excipient 55 mg/mL) read?
The value was 23%.

Which results are given for `O=C(O)[C@H](O)[C@@H](O)[C@H](O)[C@H](O)CO` [D-Gluconic acid/K salt, D-Gluconic acid]?
Viscosity ([7]; excipient 20 mg/mL): 88.4 cP; Viscosity Reduction ([7]; excipient 20 mg/mL): 16%; Viscosity ([7]; excipient 40 mg/mL): 80.32 cP; Viscosity Reduction ([7]; excipient 40 mg/mL): 23%

Which “Normalized Viscosity” value ([3]; excipient 60 mg/mL) does the source give for `CC1=NCCN1.Cl` [2-methyl-2-imidazoline HCl] here?
The value was 0.43.

And the “Viscosity Reduction” value ([3]; excipient 60 mg/mL)?
The value was 57%.

With `CCCCn1cc[n+](C)c1.[I-]` [1-butyl-3-methylimidazolium iodide] as the compound, how does the “Viscosity Reduction” value ([3]; excipient 60 mg/mL) read?
Its value is 34%.

What does the source list for Alpha-Cyclodextrin sulfated Na salt?
Viscosity [8]: 151.5 cP; Viscosity Reduction [8]: 34%

With `c1c[nH]cn1` [Imidazole] as the compound, how does the “Normalized Viscosity” value [9] read?
Its value is 0.75.

For `O=P(O)(O)OCC(O)CO` (stereo not shown) [glycerol phosphate], which Viscosity ([7]; excipient 20 mg/mL) is on record?
Its Viscosity is 83.9 cP.

What about the “Viscosity Reduction” value ([7]; excipient 20 mg/mL) of the same compound?
Its value is 18%.

And the Viscosity ([7]; excipient 40 mg/mL)?
Its Viscosity is 71.7 cP.

And the “Viscosity Reduction” value ([7]; excipient 40 mg/mL)?
Its value is 30%.

For `COC(=O)[C@H](Cc1ccccc1)NC(=O)[C@@H](N)CC(=O)O` [Aspartame] (H-Asp-Phe-OMe), which “Normalized Viscosity” value ([10]; excipient A 10 mg/mL) is on record?
Its value is 0.83.

Which results are given for `O=C1NS(=O)(=O)c2ccccc21` [Saccharin]?
Normalized Viscosity ([10]; excipient A 30 mg/mL): 0.58; Normalized Viscosity ([10]; excipient A 60 mg/mL): 0.51

For `O=C1NS(=O)(=O)c2ccccc21.[Na]` [Saccharin, Na, saccharin sodium salt], which “Observation of caffeine dissolution” value ([2]; co-solute 45 mg/mL) is on record?
The value was “DND”.

And the “Dissolution of caffeine enabled relative to reported solubility limit” value [2]?
Its value is “at least about four times”.

Which results are given for `CN(C)C1CCCCC1` [DMCHA-HCl, dimethylcyclohexylamine]?
Viscosity [11]: 35 cP; Viscosity Reduction [11]: 56%; Viscosity ([11]; excipient 28 mg/mL): 50 cP; Viscosity Reduction ([11]; excipient 28 mg/mL): 37%; Viscosity ([11]; excipient 41 mg/mL): 43 cP; Viscosity Reduction ([11]; excipient 41 mg/mL): 46%; Viscosity ([11]; excipient 50 mg/mL): 45 cP; Viscosity Reduction ([11]; excipient 50 mg/mL): 43%; Viscosity ([11]; excipient 82 mg/mL): 36 cP; Viscosity Reduction ([11]; excipient 82 mg/mL): 54%; Viscosity ([11]; excipient 164 mg/mL): 40 cP; Viscosity Reduction ([11]; excipient 164 mg/mL): 49%; Viscosity Reduction ([3]; excipient 120 mg/mL): 56%

Which “Viscosity Reduction” value ([3]; excipient 50 mg/mL) does the source give for `Cc1cc(C)nc(C)c1` [2,4,6-trimethylpyridine] here?
The value was 51%.

With `CCN(CC)CC(=O)Nc1c(C)cccc1C` [Lidocaine] as the compound, how does the “Normalized Viscosity” value ([1]; excipient A 23 mg/mL) read?
Its value is 0.74.

And the “Normalized Viscosity” value ([1]; excipient A 45 mg/mL)?
Its value is 0.73.

With `Cl.NCCc1c[nH]cn1` [Histamine HCl] as the compound, how does the “Viscosity Reduction” value ([3]; excipient 50 mg/mL) read?
Its value is 59%.

Which results are given for `CC(O)(P(=O)(O)O)P(=O)(O)O` [etidronic acid/Na salt, etidronic acid]?
Viscosity ([7]; excipient 12 mg/mL): 79.4 cP; Viscosity Reduction ([7]; excipient 12 mg/mL): 24%; Viscosity ([7]; excipient 24 mg/mL): 71.6 cP; Viscosity Reduction ([7]; excipient 24 mg/mL): 32%

For `CCCCCCn1cc[n+](C)c1.[Cl-]` [1-hexyl-3-methylimidazolium chloride], which “Viscosity Reduction” value ([3]; excipient 65 mg/mL) is on record?
The value was 11%.

For `O=C1CCCN1` [2-Pyrrolidinone], which “Viscosity Reduction” value ([3]; excipient 60 mg/mL) is on record?
Its value is 32%.

— patent publication US11357857B2, “Excipient compounds for protein processing” (COMERA LIFE SCIENCES, INC., priority 2014, dated 2022)
